Structures are written as SMILES. Converted amounts (≈) assume the structure as drawn.

The values below come from US11352349B2, “Type II topoisomerase inhibitors and methods of making and using thereof” (Ohio State Innovation Foundation, priority 2017, dated 2022).

For the first assay, the system named is S. aureus ATCC 29213. In words: MIC by broth microdilution (CLSI), quality control strain S. aureus ATCC 29213. It counts as cell-based, Staphylococcus aureus. Particulars: S. aureus ATCC 29213; multiple values when multiple MIC assays were conducted. The protocol: Minimum inhibitory concentrations were determined using the quality control strain S. aureus ATCC 29213 (Table 1) by the broth microdilution method according to guidelines of the Clinical and Laboratory Standards Institute (CLSI) (Cockerill, F. R.; et al., 2012, Methods for dilution antimicrobial susceptibility tests for bacteria that grow aerobically; approved standard-ninth edition. MA07-A9. Clinical and Laboratory Standard Institute, Wayne, Pa.). […] Published quality control ranges for gepotidacin and ciprofloxacin were used to validate each assay. MICs for selected compounds were also determined using a USA 300 strain of MRSA (Hidron, et al., Lancet Infect. Dis. 2009, 9:384-392). Vancomycin was used as an additional control.
`COc1ccc2nccc(CC[C@H]3OC[C@H](NC(=O)c4ccccc4)CO3)c2c1` [AB-0075, N-(2-(2-(6-methoxyquinolin-4-yl)ethyl)-trans-1,3-dioxan-5-yl)benzamide]: the “MIC 29213” value worked out at 32 µg/mL (≈ 81.5 µM).

Still in this assay, the particulars now being: Staphylococcus aureus, ATCC29213, S. aureus ATCC 29213; multiple values when multiple MIC assays were conducted.
With `COc1ccc2nccc(CC[C@H]3OC[C@H](NC(=O)c4ccc(Cl)c(Cl)c4)CO3)c2c1` [AB-0089, 3,4-dichloro-N-(2-(2-(6-methoxyquinolin-4-yl)ethyl)-trans-1,3-dioxan-5-yl)benzamide], the minimal inhibitory concentration (MIC) (in general, the lowest concentration that inhibits growth of the organism) is no more than 0.5 µg/mL.

The molecule `COc1ccc2nccc(CC[C@H]3OC[C@H](NCc4cccnc4)CO3)c2c1` [AB-0049, 2-(2-(6-methoxyquinolin-4-yl)ethyl)-N-(pyridin-3-ylmethyl)-trans-1,3-dioxan-5-amine] gave an MIC greater than 64 µg/mL.

`COc1ccc2nccc(CC[C@H]3OC[C@H](NC(=O)c4ccccc4)CO3)c2c1` [AB-0075, N-(2-(2-(6-methoxyquinolin-4-yl)ethyl)-trans-1,3-dioxan-5-yl)benzamide]: the MIC is 16 µg/mL (≈ 40.8 µM).

`COc1ccc2nccc(CC[C@H]3OC[C@H](NCc4cccc(OC)n4)CO3)c2c1` [AB-0040, N-((6-methoxypyridin-2-yl)methyl)-2-(2-(6-methoxyquinolin-4-yl)ethyl)-trans-1,3-dioxan-5-amine] gave an MIC greater than 64 µg/mL.

In turn, `COc1ccc2nccc(CC[C@H]3OC[C@H](NCc4ccc(OC(F)F)cc4)CO3)c2c1` [AB-0084, N-(4-(difluoromethoxy)benzyl)-2-(2-(6-methoxyquinolin-4-yl)ethyl)-trans-1,3-dioxan-5-amine] had an MIC of 4 µg/mL (≈ 9 µM).

On to `COc1ccc2nccc(CC[C@H]3OC[C@H](NCc4cccc(F)c4)CO3)c2c1` [AB-0050, N-(3-fluorobenzyl)-2-(2-(6-methoxyquinolin-4-yl)ethyl)-trans-1,3-dioxan-5-amine], for which the MIC stood at 32 µg/mL (≈ 80.7 µM).

As for `COc1ccc2nccc(CC[C@H]3OC[C@H](NCc4ccccc4Cl)CO3)c2c1` [AB-0043, N-(2-chlorobenzyl)-2-(2-(6-methoxyquinolin-4-yl)ethyl)-trans-1,3-dioxan-5-amine], the minimal inhibitory concentration (MIC) is greater than 64 µg/mL.

`COc1ccc2nccc(CC[C@H]3OC[C@H](NCc4ccc(Cl)cn4)CO3)c2c1` [AB-0069, N-((5-chloropyridin-2-yl)methyl)-2-(2-(6-methoxyquinolin-4-yl)ethyl)-trans-1,3-dioxan-5-amine] displayed an MIC of 8 µg/mL (≈ 19.3 µM).

With `COc1ccc2nccc(CC[C@H]3OC[C@H](NCc4ccccc4F)CO3)c2c1` [AB-0033, N-(2-fluorobenzyl)-2-(2-(6-methoxyquinolin-4-yl)ethyl)-trans-1,3-dioxan-5-amine], the minimal inhibitory concentration (MIC) is greater than 64 µg/mL.

`COc1ccc2ncc(=O)n(CC[C@H]3OC[C@H](NCc4ccc(Cl)c(Cl)c4)CO3)c2c1` [AB-0007, 1-(2-(5-((3,4-dichlorobenzyl)amino)-trans-1,3-dioxan-2-yl)ethyl)-7-methoxyquinoxalin-2(1H)-one] yielded an MIC of 4 µg/mL (≈ 8.61 µM).

`COc1ccc2nccc(CC[C@H]3OC[C@H](NCc4cc(F)cc(F)c4)CO3)c2c1` [AB-0029, N-(3,5-difluorobenzyl)-2-(2-(6-methoxyquinolin-4-yl)ethyl)-trans-1,3-dioxan-5-amine]: the MIC was found to be 16 µg/mL (≈ 38.6 µM).

The molecule `COc1ccc2ncc(=O)n(CC[C@H]3OC[C@H](NCc4cc5c(cn4)OCCC5)CO3)c2c1` [AB-0006, 1-(2-(5-(((3,4-dihydro-2H-pyrano[2,3-c]pyridin-6-yl)methyl)amino)-trans-1,3-dioxan-2-yl)ethyl)-7-methoxyquinoxalin-2(1H)-one] returned an MIC of 8 µg/mL (≈ 17.7 µM).

Consider `COc1ccc2nccc(CC[C@H]3OC[C@H](NCc4ccc(F)cc4F)CO3)c2c1` [AB-0039, N-(2,4-difluorobenzyl)-2-(2-(6-methoxyquinolin-4-yl)ethyl)-trans-1,3-dioxan-5-amine], for which the lowest concentration to inhibit growth (MIC) was 64 µg/mL (≈ 154 µM).

In the case of `COc1ccc2nccc(CC[C@H]3OC[C@H](NCc4ccc(F)cc4)CO3)c2c1` [AB-0041, N-(4-fluorobenzyl)-2-(2-(6-methoxyquinolin-4-yl)ethyl)-trans-1,3-dioxan-5-amine], the MIC was greater than 64 µg/mL.

`COc1ccc2ncc(=O)n(CC[C@H]3OC[C@H](NCc4cc5c(cn4)OCCO5)CO3)c2c1` [AB-0003, 1-(2-(5-(((2,3-dihydro-[1,4]dioxino[2,3-c]pyridin-7-yl)methyl)amino)-1,3-trans-dioxan-2-yl)ethyl)-7-methoxyquinoxalin-2(1H)-one] gave an MIC of 8 µg/mL (≈ 17.6 µM).

The molecule `COc1ccc2nccc(CC[C@H]3OC[C@H](NCc4cccc(C#N)c4)CO3)c2c1` [AB-0026, 3-(((2-(2-(6-methoxyquinolin-4-yl)ethyl)-trans-1,3-dioxan-5-yl)amino)methyl)benzonitrile] registered an MIC of 64 µg/mL (≈ 159 µM).

On to `COc1ccc2nccc(CC[C@H]3OC[C@H](NCc4cccc(F)c4F)CO3)c2c1` [AB-0028, N-(2,3-difluorobenzyl)-2-(2-(6-methoxyquinolin-4-yl)ethyl)-trans-1,3-dioxan-5-amine], for which the MIC was 64 µg/mL (≈ 154 µM).

Take `COc1ccc2nccc(CC[C@H]3OC[C@H](NCc4ccccc4OC)CO3)c2c1` [AB-0027, N-(2-methoxybenzyl)-2-(2-(6-methoxyquinolin-4-yl)ethyl)-trans-1,3-dioxan-5-amine]: the MIC was greater than 64 µg/mL.

Regarding `COc1ccc2nccc(CC[C@H]3OC[C@H](NCc4cccc(C)c4)CO3)c2c1` [AB-0042, 2-(2-(6-methoxyquinolin-4-yl)ethyl)-N-(3-methylbenzyl)-trans-1,3-dioxan-5-amine], the MIC was found to be 16 µg/mL (≈ 40.8 µM).

`COc1ccc2nccc(CC[C@H]3OC[C@H](NCc4ccccn4)CO3)c2c1` [AB-0048] displayed an MIC of 8 µg/mL (≈ 21.1 µM).

Molecule `COc1ccc2ncc(=O)n(CC(O)[C@H]3OC[C@H](NCc4ccc5c(n4)NC(=O)CO5)CO3)c2c1` (relative stereo) [AB-0078, 6-(((2-(1-hydroxy-2-(7-methoxy-2-oxoquinoxalin-1(2H)-yl)ethyl)-trans-1,3-dioxan-5-yl)amino)methyl)-2H-pyrido[3,2-b][1,4]oxazin-3(4H)-one] displayed a minimal inhibitory concentration (MIC) of 4 µg/mL (≈ 8.27 µM).

With `COc1ccc2nccc(CC[C@H]3OC[C@H](NCc4ccccc4)CO3)c2c1` [AB-0038, N-benzyl-2-(2-(6-methoxyquinolin-4-yl)ethyl)-trans-1,3-dioxan-5-amine], the MIC was greater than 64 µg/mL.

Take `COc1ccc2nccc(CC[C@H]3OC[C@H](NCc4cccs4)CO3)c2c1` [AB-0036, 2-(2-(6-methoxyquinolin-4-yl)ethyl)-N-(thiophen-2-ylmethyl)-trans-1,3-dioxan-5-amine]: the MIC is greater than 64 µg/mL.

Turning to `COc1ccc2nccc(CC[C@H]3OC[C@H](NCc4ccsc4)CO3)c2c1` [AB-0035, 2-(2-(6-methoxyquinolin-4-yl)ethyl)-N-(thiophen-3-ylmethyl)-trans-1,3-dioxan-5-amine], the MIC is greater than 64 µg/mL.

For `COc1ccc2nccc(CC[C@H]3OC[C@H](NCc4ccccc4C)CO3)c2c1` [AB-0032, 2-(2-(6-methoxyquinolin-4-yl)ethyl)-N-(2-methylbenzyl)-trans-1,3-dioxan-5-amine], the MIC is greater than 64 µg/mL.

The molecule `COc1ccc2nccc(CC[C@H]3OC[C@H](NCc4c(F)cccc4F)CO3)c2c1` [AB-0025, N-(2,6-difluorobenzyl)-2-(2-(6-methoxyquinolin-4-yl)ethyl)-trans-1,3-dioxan-5-amine] came in with an MIC greater than 64 µg/mL.

In the case of `COc1ccc2nccc(CC[C@H]3OC[C@H](NCc4ccc(C)cn4)CO3)c2c1` [AB-0070, 2-(2-(6-methoxyquinolin-4-yl)ethyl)-N-((5-methylpyridin-2-yl)methyl)-trans-1,3-dioxan-5-amine], the MIC turned out to be 4 µg/mL (≈ 10.2 µM).

The molecule `COc1ccc2nccc(CC[C@H]3OC[C@H](NCc4ccc(OC)nc4)CO3)c2c1` [AB-0056, N-((6-methoxypyridin-3-yl)methyl)-2-(2-(6-methoxyquinolin-4-yl)ethyl)-trans-1,3-dioxan-5-amine] registered an MIC of 32 µg/mL (≈ 78.1 µM).
